Measurements reported in patent publication US20230414626A1, “INDUCTION OF FERROPTOSIS FOR CANCER THERAPY” (Memorial Sloan Kettering Cancer Center, priority 2020, published 2023).

Columns and labels:
MDA-MB-453 cells = experiment: Measurement of lipid peroxidation (BODIPY C11, flow cytometry); format: cell-based, human; settings: with RSL3
Description: (§1) FIG. 2 A-E. mTORC1, instead of mTORC2, suppresses ferroptosis. (A) MDA-MB-453 and BT474 were treated with CCI-779 (0.5 μM), RSL3 (1 μM for MDA-MB-453 cells and 0.5 μM for BT474 cells), and Fer-1 (1 μM) as indicated. (B) Cells were seeded in 6-well plate, 4×10^5 cells per well and incubated overnight. MDA-MB-453 and BT474 cells were treated as indicated. CCI-779, 0.5 μM; RSL3, 1 μM for MDA-MB-453 cells and 0.5 μM for BT474 cells; Fer-1, 1 μM. Cells were stained with 5 μM C1I-BODIPY followed by flow cytometry after 8 h-treatment. (C) 3D spheroids were treated as indicated. CCI-779, 0.5 μM; RSL3, 0.5 μM; Fer-1, 1 μM. Top panel, dead cells were stained by SYTOX Green (scale bar, 100 μm). Bottom panel, cell viability was assayed by measuring cellular ATP levels. (D) Cells expressing shRNAs targeting RPTOR or RICTOR were treated as indicated. CCI-779, 0.5 μM; RSL3, 0.5 μM; Fer-1, 1 μM. (E) Lipid peroxidation of samples as in panel D were measured.
(§2) FIG. 7 A-J. PI3K-AKT-mTOR signaling regulates ferroptosis sensitivity. (A) Cells were treated as indicated. GDC-0941, 2 μM; MK-2206, 2 μM; RSL3, 1 μM; Fer-1, 1 μM. Lipid peroxidation was measured. (B) Cells were treated with indicated conditions. Torin, 1 μM; RSL3, 1 μM for MDA-MB-453 cells and 0.5 μM for BT474 cells; Fer-1, 1 μM. Cell death was measured. (C) Cells were treated with indicated conditions. RSL3, 10 μM for MCF cells and PC-3 cells, 5 μM for T47D cells, 1 μM for HepG2 cells; Torin, 1 μM; CCI-779, 0.5 μM. (D) Cells were treated as indicated. CCI-779, 0.5 μM; Torin, 1 μM; Fer-1, 1 μM. Cell death was staining by propidium iodide (PI) (red) or Sytox Green (green) (scale bar, 100 μm). (E-F) 3D spheroids for MDA-MB-453 cells and MCF7 cells were treated as indicated. CCI-779, 0.5 μM; RSL3, 1 μM for MDA-MB-453 cells and 5 μM for MCF7 cells; Fer-1, 1 μM. Top panels, cell death staining (scale bar, 100 m). Bottom panels, cell viability. (G) MDA-MB-453 cells were treated as indicated for 24 h. RSL3, 1 μM; CCI-779, 0.5 μM; GDC-0941, 2 μM; MK-2206, 2 μM; Dabrafenib, 2 μM; SCH772984, 2 μM; Fer-1, 1 μM. (H) Western blot was performed to detect RPTOR and RICTOR knockdown efficiency. (I) HT1080 cells and MDA-MB-231 cells (both with wild-type PI3K-AKT-mTOR pathway) were treated as indicated. RSL3, 0.1 μM for HT1080 and 0.25 μM for MDA-MB-231; Torin, 1 μM; CCI-779, 0.5 μM; Fer-1, 1 μM. Cell death was measured. (J) Two lines of PI3K-AKT-mTOR pathway wild-type cells (HT1080 and MDA-MB-231) and two lines of cells harboring activating mutation of the pathway (BT474 and MDA-MB-453) were treated as indicated. RSL3, 0.25 μM; Fer-1, 1 μM. Western blot was performed to detect the level of pT389 S6K.
(§3) FIG. 11 A-H. SCD1 protects cells against ferroptosis. (A) Cells were pretreated cells with 5 μM CAY10566 overnight. Cells were treated as indicated. RSL3, 1 μM for MDA-MB-453 and 0.5 μM for BT474; Fer-1, 1 μM; CAY10566, 5 μM; Fer-1, 1 μM. (B) Western blot, measuring the SCD knockout efficiency in BT474, MDA-MB-453 and MCF7 cells. (C) MCF cells (sgCtrl, sgSCD #1 and sgSCD #2) were treated as indicated. RSL3, 5 μM; Fer-1, 1 μM. (D) Cells were treated as indicated. RSL3, 1 μM for MDA-MB-453 cells and 0.5 μM for BT474 cells; Fer-1, 1 μM. (E) Cells were treated as indicated. RSL3, 1 μM for MDA-MB-453 cells and 0.5 μM for BT474 cells; Fer-1, 1 μM; CCI-779, 0.5 μM; GDC-0941, 2 μM; MK-2206, 2 μM. (F) SCD1 was overexpressed in BT474 cells. Cells were treated as indicated. RSL3, 0.5 μM; CCI-779, 0.5 μM. Lipid peroxidation was measured. (G) SCD1 was overexpressed in A549 cells and determined by western blot. Cells were treated as indicated. RSL3, 0.25 μM; CCI-779, 0.5 μM. Lipid peroxidation and cell death were measured 6 h and 24 h after treatment, respectively. (H) SCD1 was overexpressed in BT474 cells harboring SREBF1 knockout. SCD1 and SREBP1 level were determined by western blot. Cells were treated as indicated. RSL3, 0.5 μM; CCI-779, 0.5 μM; Fer-1, 1 μM.
(§4) Lipid peroxidation was analyzed by flow cytometry. […]

BT474 cells = experiment: as above; format: cell-based, human; settings: with RSL3
Description: as §1, §2, §3, §4

For `Cc1nnc(-c2ccc(N3CCC(Oc4cc(F)ccc4Cl)CC3)nn2)o1` [CAY10566], the “sensitization to lipid peroxidation” value (MDA-MB-453 cells) was “sensitized the effect of RSL3” and the “sensitization to lipid peroxidation” value (BT474 cells) was “sensitized the effect of RSL3”.
For `CO[C@H]1C[C@@H]2CC[C@@H](C)[C@@](O)(O2)C(=O)C(=O)N2CCCC[C@H]2C(=O)O[C@H]([C@H](C)C[C@@H]2CC[C@@H](OC(=O)C(C)(CO)CO)[C@H](OC)C2)CC(=O)[C@H](C)/C=C(\C)[C@@H](O)[C@@H](OC)C(=O)[C@H](C)C[C@H](C)/C=C/C=C/C=C/1C` [CCI-779, Temsirolimus], the “sensitization to lipid peroxidation” value (MDA-MB-453 cells) was “sensitize” and the “sensitization to lipid peroxidation” value (BT474 cells) was “sensitize”.
In the case of `CCCc1cc(-c2nc(-c3ccc(C)cc3)cs2)ccn1` [Fatostatin A], the “sensitization to lipid peroxidation” value (MDA-MB-453 cells) is reported as “sensitized” and the “sensitization to lipid peroxidation” value (BT474 cells) is reported as “sensitized”.
`CS(=O)(=O)N1CCN(Cc2cc3nc(-c4cccc5[nH]ncc45)nc(N4CCOCC4)c3s2)CC1` [GDC-0941] was tested, and the “sensitization to lipid peroxidation” value (MDA-MB-453 cells) was “sensitized” and the “sensitization to lipid peroxidation” value (BT474 cells) was “sensitized”.
With `NC1(c2ccc(-c3nc4ccn5c(=O)[nH]nc5c4cc3-c3ccccc3)cc2)CCC1` [MK-2206] the “sensitization to lipid peroxidation” value (MDA-MB-453 cells) was “sensitized” and the “sensitization to lipid peroxidation” value (BT474 cells) was “sensitized”.
